SMILES	melting point [°C]
CCc1nc2c(n1C(CC)CC)C(=O)N(C)CN2c1ccc(Cl)cc1Cl [Example 1, 3-(2,4-dichlorophenyl)-8-ethyl-1-methyl-7-(3-pentyl)-1,2,3,7-tetrahydro-6H-purin-6-one]	132 to 133
CCCC(CCC)n1c(CC)nc2c1C(=O)N(C)CN2c1ccc(Cl)cc1Cl [Example 2, 3-(2,4-dichlorophenyl)-8-ethyl-7-(4-heptyl)-1-methyl-1,2,3,7-tetrahydro-6H-purin-6-one]	117 to 118
CCc1nc2c(n1C(CC)CC)C(=O)N(C)C(C)N2c1ccc(Cl)cc1Cl (stereo not shown) [Example 3, 3-(2,4-dichlorophenyl)-1,2-dimethyl-8-ethyl-7-(3-pentyl)-1,2,3,7-tetrahydro-6H-purin-6-one]	135 to 136.5
CCCC(CCC)n1c(CC)nc2c1C(=O)N(C)C(C)N2c1ccc(Cl)cc1Cl (stereo not shown) [Example 5, 3-(2,4-dichlorophenyl)-1,2-dimethyl-8-ethyl-7-(4-heptyl)-1,2,3,7-tetrahydro-6H-purin-6-one]	144 to 145.5
CCCC(CCC)n1c(CC)nc2c1C(=O)N(C)C(CC)N2c1ccc(Cl)cc1Cl (stereo not shown) [Example 6, 3-(2,4-dichlorophenyl)-2,8-diethyl-7-(4-heptyl)-1-methyl-1,2,3,7-tetrahydro-6H-purin-6-one]	116.5 to 117.5
CCc1nc2c(n1Cc1ccc(-c3ccccc3)cc1)C(=O)N(C)CN2c1ccc(Cl)cc1Cl [Example 21, 7-([1,1′-biphenyl]-4-ylmethyl)-3-(2,4-dichlorophenyl)-8-ethyl-1-methyl-1,2,3,7-tetrahydro-6H-purin-6-one]	216 to 217
CCCCC(CC)n1c(CC)nc2c1C(=O)N(C)CN2c1ccc(Cl)cc1Cl (stereo not shown) [Example 49, 3-(2,4-dichlorophenyl)-8-ethyl-7-(3-heptyl)-1-methyl-1,2,3,7-tetrahydro-6H-purin-6-one]	94 to 95

Source: patent US6894045B2, “Tetrahydropurinones and derivatives thereof as corticotropin releasing factor receptor ligands” (Bristol-Myers Squibb Pharma Company, priority 2001, dated 2005)
